Experimental data published in patent publication US20130072430A1, “METHODS FOR TREATMENT OR PROPHYLAXIS OF KIDNEY OR LIVER DYSFUNCTION” (NPS PHARMACEUTICALS, INC., priority 2010, published 2013).

Tested on: Human patients with short bowel syndrome
Assay: Example 1: kidney diagnostic biomarkers (urea nitrogen, creatinine, GFR) in short bowel syndrome patients, every four weeks for 24 weeks
Type: in vivo
Parameters: CREATININE (RATE BLANKED) Change from Baseline, Median / GFR, Median / GFR Change from Baseline, Median / UREA NITROGEN, Median / UREA NITROGEN Change from Baseline, Median: unit not given here
Settings: for CREATININE (RATE BLANKED), Median: unit assumed
Protocol: Human patients with short bowel syndrome were divided into three groups: a control group (16 total individuals) to receive placebo, an experimental group (35 total individuals) to receive teduglutide at 0.05 mg/kg/day throughout the study, and an experimental group (32 total individuals) to receive teduglutide at 0.1 mg/kg/day throughout the study. Patients were treated by subcutaneous injection of placebo or the appropriate dose of teduglutide. As individuals with short bowel syndrome are likely to experience associated liver and kidney disease, known biomarkers of liver and kidney function were monitored every four weeks, for 24 weeks. The liver biomarkers tested included total bilirubin, ALT and AST and ALP. The kidney biomarkers tested included urea nitrogen, creatinine and GFR. Before administration of placebo or teduglutide, diagnostic biomarker levels were tested to establish a baseline for each individual.
To visualize the effect of GLP-2 on the levels of the diagnostic biomarkers, the average change from baseline was calculated for the placebo and teduglutide treated groups for each visit after a baseline was established. The average change from baseline of each group is depicted in FIGS. […]. The numerical figures for each diaanostic biomarker at each time point are depicted in Table 1.
The raw data for this sorting is reproduced in Table 2 below.

[1] = Week 4, range <−5%, teduglutide 0.05 mg/kg/day
[2] = Week 4, range <−5%, teduglutide 0.1 mg/kg/day
[3] = Week 4, range >5%, teduglutide 0.05 mg/kg/day
[4] = Week 4, range >5%, teduglutide 0.1 mg/kg/day
[5] = Week 4, range −5%<= and <=5%, teduglutide 0.05 mg/kg/day
[6] = Week 4, range −5%<= and <=5%, teduglutide 0.1 mg/kg/day
[7] = Week 8, range <−5%, teduglutide 0.05 mg/kg/day
[8] = Week 8, range <−5%, teduglutide 0.1 mg/kg/day
[9] = Week 8, range >5%, teduglutide 0.05 mg/kg/day
[10] = Week 8, range >5%, teduglutide 0.1 mg/kg/day
[11] = Week 8, range −5%<= and <=5%, teduglutide 0.05 mg/kg/day
[12] = Week 8, range −5%<= and <=5%, teduglutide 0.1 mg/kg/day
[13] = Week 12, range <−5%, teduglutide 0.05 mg/kg/day
[14] = Week 12, range <−5%, teduglutide 0.1 mg/kg/day
[15] = Week 12, range >5%, teduglutide 0.05 mg/kg/day

## CC[C@H](C)[C@H](NC(=O)[C@H](Cc1ccccc1)NC(=O)[C@H](CC(=O)O)NC(=O)[C@H](CCCNC(=N)N)NC(=O)[C@H](C)NC(=O)[C@H](C)NC(=O)[C@H](CC(C)C)NC(=O)[C@H](CC(N)=O)NC(=O)[C@H](CC(=O)O)NC(=O)[C@H](CC(C)C)NC(=O)[C@@H](NC(=O)[C@@H](NC(=O)[C@H](CC(N)=O)NC(=O)[C@H](CCSC)NC(=O)[C@H](CCC(=O)O)NC(=O)[C@H](CC(=O)O)NC(=O)[C@H](CO)NC(=O)[C@H](Cc1ccccc1)NC(=O)[C@H](CO)NC(=O)CNC(=O)[C@H](CC(=O)O)NC(=O)CNC(=O)[C@@H](N)Cc1c[nH]cn1)[C@@H](C)O)[C@@H](C)CC)C(=O)N[C@@H](CC(N)=O)C(=O)N[C@@H](Cc1c[nH]c2ccccc12)C(=O)N[C@@H](CC(C)C)C(=O)N[C@H](C(=O)N[C@@H](CCC(N)=O)C(=O)N[C@H](C(=O)N[C@@H](CCCCN)C(=O)N[C@H](C(=O)N[C@H](C(=O)N[C@@H](CC(=O)O)C(=O)O)[C@@H](C)O)[C@@H](C)CC)[C@@H](C)O)[C@@H](C)CC [teduglutide]
0.10 mg/kg/day, DW20
  GFR, Median: 76.1
  UREA NITROGEN Change from Baseline, Mean (SD): −0.0 (1.60)
  UREA NITROGEN Change from Baseline, Median: −0.1
  UREA NITROGEN, Mean (SD): 6.3 (1.91)
  UREA NITROGEN, Median: 6.0
  CREATININE (RATE BLANKED), Median: 88 µmol/L
0.10 mg/kg/day, DW24
  CREATININE (RATE BLANKED) Change from Baseline, Mean (SD): −2.0 (13.18)
  CREATININE (RATE BLANKED) Change from Baseline, Median: 0.0
  CREATININE (RATE BLANKED), Mean (SD): 82.0 (22.35)
  GFR Change from Baseline, Mean (SD): 4.6 (16.73)
  GFR Change from Baseline, Median: 2.3
  GFR, Mean (SD): 82.4 (27.05)
  GFR, Median: 81.1
  UREA NITROGEN Change from Baseline, Mean (SD): −0.2 (1.87)
  UREA NITROGEN Change from Baseline, Median: 0.3
  UREA NITROGEN, Mean (SD): 6.1 (1.98)
  UREA NITROGEN, Median: 5.9
  CREATININE (RATE BLANKED), Median: 81 µmol/L
[1]
  CREATININE (RATE BLANKED) change from baseline: patients in range, n(%): 7(20.0%)
  GFR change from baseline: patients in range, n(%): 13(37.1%)
  UREA NITROGEN change from baseline: patients in range, n(%): 16(45.7%)
[2]
  CREATININE (RATE BLANKED) change from baseline: patients in range, n(%): 12(37.5%)
  GFR change from baseline: patients in range, n(%): 7(21.9%)
  UREA NITROGEN change from baseline: patients in range, n(%): 10(31.3%)
[3]
  CREATININE (RATE BLANKED) change from baseline: patients in range, n(%): 14(40.0%)
  GFR change from baseline: patients in range, n(%): 8(22.9%)
  UREA NITROGEN change from baseline: patients in range, n(%): 7(20.0%)
[4]
  CREATININE (RATE BLANKED) change from baseline: patients in range, n(%): 7(21.9%)
  GFR change from baseline: patients in range, n(%): 14(43.8%)
  UREA NITROGEN change from baseline: patients in range, n(%): 15(46.9%)
[5]
  CREATININE (RATE BLANKED) change from baseline: patients in range, n(%): 9(25.7%)
  GFR change from baseline: patients in range, n(%): 9(25.7%)
  UREA NITROGEN change from baseline: patients in range, n(%): 7(20.0%)
[6]
  CREATININE (RATE BLANKED) change from baseline: patients in range, n(%): 13(40.6%)
  GFR change from baseline: patients in range, n(%): 11(34.4%)
  UREA NITROGEN change from baseline: patients in range, n(%): 7(21.9%)
[7]
  CREATININE (RATE BLANKED) change from baseline: patients in range, n(%): 11(31.4%)
  GFR change from baseline: patients in range, n(%): 9(25.7%)
  UREA NITROGEN change from baseline: patients in range, n(%): 14(40.0%)
[8]
  CREATININE (RATE BLANKED) change from baseline: patients in range, n(%): 8(25.0%)
  GFR change from baseline: patients in range, n(%): 9(28.1%)
  UREA NITROGEN change from baseline: patients in range, n(%): 9(28.1%)
[9]
  CREATININE (RATE BLANKED) change from baseline: patients in range, n(%): 10(28.6%)
  GFR change from baseline: patients in range, n(%): 12(34.3%)
  UREA NITROGEN change from baseline: patients in range, n(%): 10(28.6%)
[10]
  CREATININE (RATE BLANKED) change from baseline: patients in range, n(%): 13(40.6%)
  GFR change from baseline: patients in range, n(%): 9(28.1%)
  UREA NITROGEN change from baseline: patients in range, n(%): 15(46.9%)
[11]
  CREATININE (RATE BLANKED) change from baseline: patients in range, n(%): 8(22.9%)
  GFR change from baseline: patients in range, n(%): 7(20.0%)
  UREA NITROGEN change from baseline: patients in range, n(%): 5(14.3%)
[12]
  CREATININE (RATE BLANKED) change from baseline: patients in range, n(%): 10(31.3%)
  GFR change from baseline: patients in range, n(%): 13(40.6%)
  UREA NITROGEN change from baseline: patients in range, n(%): 7(21.9%)
[13]
  CREATININE (RATE BLANKED) change from baseline: patients in range, n(%): 7(20.0%)
  GFR change from baseline: patients in range, n(%): 15(42.9%)
  UREA NITROGEN change from baseline: patients in range, n(%): 17(48.6%)
[14]
  CREATININE (RATE BLANKED) change from baseline: patients in range, n(%): 9(28.1%)
  GFR change from baseline: patients in range, n(%): 11(34.4%)
  UREA NITROGEN change from baseline: patients in range, n(%): 13(40.6%)
[15]
  CREATININE (RATE BLANKED) change from baseline: patients in range, n(%): 16(45.7%)
  GFR change from baseline: patients in range, n(%): 6(17.1%)
  UREA NITROGEN change from baseline: patients in range, n(%): 6(17.1%)
